Data on 5 compounds can be found in patent publication US20050009924A1 (priority 2003, published 2005).

A value given as a limit tells only on which side of the number the result lay.

The nature of data set [1]: MTT relative viability, PhTERT-SEAP (hTERT-BJ1) cells. The following applies: human.
Data set [2] relates to transcriptional activity of hTERT. Description: SEAP reporter assay of hTERT expression, PhTERT-SEAP (H1299). Particulars: PhTERT-SEAP(hTERT-H1299). Format: cell-based, human. The procedure, abridged: (§1)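 We treated G418-selected reporter cells with varying drug amounts for 24 h and measured SEAP in the heat-inactivated medium as the rate of 405 nm absorbance increase.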
On the technique in general: In a reporter assay the amount or activity of a reporter protein is the signal.

The nature of data set [3]: MTT relative viability, PhTERT-SEAP (H1299) cells. Particulars: human.
Data set [4] has as its system transcriptional activity of hTERT. Description: SEAP reporter assay of hTERT expression, PhTERT-SEAP (hTERT-BJ1). Format: cell-based, human. The following applies: PhTERT-SEAP (hTERT-BJ1). The procedure, abridged:
as §1

Data set [5] concerns hepatitis B virus transfected hepatoma cell lines, HepG 2.2.15 cells. Description: Cytotoxicity assay, 2.2.15 cells. Format: cell-based, human. The following applies: Homo sapiens, HepG2.2.15; 48 h of drug exposure.
A further data set deals with human hepatoma G2 cells. Description: Cytotoxicity assay (XTT colorimetric), Hep G2. The following applies: Homo sapiens, HepG2; 48 h of drug exposure. In kind it is cell-based. Background: Tetrazolium assays rely on reduction of a dye to a coloured formazan, in cell work by metabolically active cells.
Another data set concerns rat glioma C6 cells. Description: Cytotoxicity assay (XTT colorimetric), C6 cells. Format: cell-based. Particulars: Rattus norvegicus, C6; 48 h of drug exposure.
The mark [6] stands for this setting: hTERT-BJ1 cells stably transfected with PhTERT-SEAP reporter.
Setting [7] is: hTERT-BJ1 cells, stable PhTERT-SEAP reporter clone.
The mark [8] stands for this setting: Homo sapiens, NCI-H1299, 2.0 μM, read-out: Relative SEAP activity (%).
The mark [9] stands for this setting: Homo sapiens, NCI-H1299, 20 μM, read-out: Relative SEAP activity (%).
The mark [10] stands for this setting: Homo sapiens, 2.0 μM, read-out: Relative SEAP activity (%).
[11] abbreviates: Homo sapiens, 20 μM, read-out: Relative SEAP activity (%).
The mark [12] stands for this setting: Homo sapiens, NCI-H1299, 2.1 μM, read-out: Relative SEAP activity (%).
Where [13] appears, read: Homo sapiens, NCI-H1299, 21 μM, read-out: Relative SEAP activity (%).
Setting [14] is: Homo sapiens, NCI-H1299, 218 μM, read-out: Relative SEAP activity (%).
Setting [15] is: Homo sapiens, 2.1 μM, read-out: Relative SEAP activity (%).
Where [16] appears, read: Homo sapiens, 21 μM, read-out: Relative SEAP activity (%).
[17] abbreviates: Homo sapiens, 218 μM, read-out: Relative SEAP activity (%).

For `O=C(CCC1CCCC1)Nc1ccc(NC(=O)CCC2CCCC2)c2c1C(=O)c1ccccc1C2=O` [VI19, 1,4-Bis(3-cyclopentanepropionamido)-9,10-anthracenedione], the melting point fell in the range of 166 to 167 °C. In data set [1] (setting [6]), the viability at 48 h, 205 µM was determined as 100 ± 5.8%. Besides, in data set [1] (setting [7]), the viability at 48 h, 2 µM amounted to 107 ± 3.6% and the viability at 48 h, 20 µM was found to be 101 ± 4.7%. In data set [2] (2.0 μM), the SEAP/vibility came to 1.06. In data set [2] (20 μM), the SEAP/vibility turned out to be 1.09. The compound also displayed an SEAP/vibility in data set [2] (205 μM) of 1.15. The activity at 2 µM in data set [2] (setting [8]) is 111 ± 9.4%. Also, the activity at 20 µM in data set [2] (setting [9]) amounted to 116 ± 8%. Further, the activity at 205 µM in data set [2] (Homo sapiens, NCI-H1299, 205 μM, read-out: Relative SEAP activity (%)) was 109 ± 9.2%. In data set [3], the viability at 48 h, 2 µM was 105 ± 2.1%; the viability at 48 h, 20 µM was 106 ± 4.7%; the viability at 48 h, 205 µM amounted to 95 ± 1.3%. In data set [4] (2.0 μM), this compound registered an SEAP/vibility of 0.84. This compound also registered an SEAP/vibility in data set [4] (20 μM) of 0.87. In data set [4] (205 μM), this compound yielded an SEAP/vibility of 0.87. In addition, the activity at 2 µM in data set [4] (setting [10]) is 90 ± 9.2%. In addition, the activity at 20 µM in data set [4] (setting [11]) is 87 ± 5.5%. Besides, in data set [4] (Homo sapiens, 205 μM, read-out: Relative SEAP activity (%)), the activity at 205 µM came to 87 ± 8%. In data set [5], the IC50 was more than 20 µM. The same compound had an IC50 with human hepatoma G2 cells of more than 20 µM. Moreover, in the data set on rat glioma C6 cells, the concentration for half-maximal inhibition (IC50) is more than 20 µM.
As for `CCN(CC)C(C)C(=O)Nc1ccc(NC(=O)C(C)N(CC)CC)c2c1C(=O)c1ccccc1C2=O` (centres unmarked) [VI35, 1,4-Bis[2-(diethylamino)propionamido]-9,10-anthracenedione], the melting point fell in the range of 175 to 177 °C. For the same compound, in data set [1] (setting [7]), the viability at 48 h, 2 µM was determined as 97 ± 3.9%; the viability at 48 h, 20 µM is 52 ± 7.2%; the viability at 48 h, 203 µM is 36 ± 5.8%. Further, the SEAP/vibility in data set [2] (2.0 μM) came to 1.00. In data set [2] (20 μM), this compound gave an SEAP/vibility of 1.35. In addition, the SEAP/vibility in data set [2] (203 μM) worked out at 0.98. Further, the activity at 2 µM in data set [2] (setting [8]) is 96 ± 14.3%. The activity at 20 µM in data set [2] (setting [9]) worked out at 104 ± 6%. For the same compound, in data set [2] (Homo sapiens, NCI-H1299, 203 μM, read-out: Relative SEAP activity (%)), the activity at 203 µM was 73 ± 11.7%. In data set [3], the viability at 48 h, 2 µM worked out at 96 ± 7.9%; the viability at 48 h, 20 µM was 77 ± 7.2%; the viability at 48 h, 203 µM came to 75 ± 4.6%. Besides, the SEAP/vibility in data set [4] (2.0 μM) is reported as 0.41. Besides, the SEAP/vibility in data set [4] (20 μM) turned out to be 0.94. The SEAP/vibility in data set [4] (203 μM) stood at 0.61. For the same compound, the activity at 2 µM in data set [4] (setting [10]) was 40 ± 14.5%. Also, the activity at 20 µM in data set [4] (setting [11]) came out at 49 ± 9.3%. Moreover, the activity at 203 µM in data set [4] (Homo sapiens, 203 μM, read-out: Relative SEAP activity (%)) is 22 ± 6.6%. In data set [5], this compound returned an IC50 of 8.57 µM. Besides, it took 2.02 µM to reach half-maximal inhibition with human hepatoma G2 cells (IC50). The same compound had a 50% inhibitory concentration (IC50) in the data set on rat glioma C6 cells of 18.1 µM.
On to `O=C1c2ccccc2C(=O)c2c(NC(=O)C3CCCCC3)ccc(NC(=O)C3CCCCC3)c21` [VI17, 1,4-Bis(cyclohexaneamido)-9,10-anthracenedione], for which the melting point is 309 to 310 °C. Moreover, in data set [1] (setting [6]), the viability at 48 h, 218 µM turned out to be 83 ± 4.2%. Besides, in data set [1] (setting [7]), the viability at 48 h, 2.1 µM came out at 102 ± 3% and the viability at 48 h, 21 µM is 97 ± 2.4%. The compound further came in with an SEAP/vibility in data set [2] (2.1 μM) of 1.00. The SEAP/vibility in data set [2] (21 μM) is reported as 1.05. For the same compound, in data set [2] (218 μM), the SEAP/vibility is 1.38. Further, in data set [2] (setting [12]), the activity at 2.1 µM was determined as 104 ± 1.8%. Also, the activity at 21 µM in data set [2] (setting [13]) came to 100 ± 6.2%. Also, in data set [2] (setting [14]), the activity at 218 µM was found to be 93 ± 2.5%. Also, in data set [3], the viability at 48 h, 2.1 µM worked out at 104 ± 6.4%; the viability at 48 h, 21 µM was found to be 96 ± 5.8%; the viability at 48 h, 218 µM was found to be 67 ± 1.5%. This compound also yielded an SEAP/vibility in data set [4] (2.1 μM) of 0.64. Also, the SEAP/vibility in data set [4] (21 μM) turned out to be 0.44. For the same compound, the SEAP/vibility in data set [4] (218 μM) came out at 0.68. For the same compound, the activity at 2.1 µM in data set [4] (setting [15]) amounted to 65 ± 16%. Also, in data set [4] (setting [16]), the activity at 21 µM was found to be 42 ± 24.3%. Besides, the activity at 218 µM in data set [4] (setting [17]) is 56 ± 16.3%. The IC50 in data set [5] was more than 20 µM. The compound also returned an IC50 in the data set with human hepatoma G2 cells of more than 20 µM. In the data set on rat glioma C6 cells, this compound registered an IC50 of more than 20 µM.
In the case of `CCN(CC)CC(=O)Nc1ccc(NC(=O)CN(CC)CC)c2c1C(=O)c1ccccc1C2=O` [VI33, 1,4-Bis[2-(diethylamino)acetamido]-9,10-anthracenedione], the melting point was in the range of 85 to 86 °C. Besides, in data set [1] (setting [7]), the viability at 48 h, 2.1 µM was 105 ± 2.8%; the viability at 48 h, 21 µM is 86 ± 3.5%; the viability at 48 h, 215 µM worked out at 32 ± 13.1%. The compound further came in with an SEAP/vibility in data set [2] (2.1 μM) of 0.94. This compound also returned an SEAP/vibility in data set [2] (21 μM) of 0.99. Also, the SEAP/vibility in data set [2] (215 μM) is on record as 1.11. The activity at 2.1 µM in data set [2] (setting [12]) was 98 ± 3.3%. Besides, the activity at 21 µM in data set [2] (setting [13]) was 86 ± 7.4%. Moreover, the activity at 215 µM in data set [2] (Homo sapiens, NCI-H1299, 215 μM, read-out: Relative SEAP activity (%)) came out at 48 ± 2.3%. Moreover, in data set [3], the viability at 48 h, 2.1 µM was found to be 105 ± 4.9%; the viability at 48 h, 21 µM turned out to be 87 ± 3.9%; the viability at 48 h, 215 µM is 44 ± 2.7%. In addition, in data set [4] (2.1 μM), the SEAP/vibility was 1.06. For the same compound, the SEAP/vibility in data set [4] (21 μM) is on record as 1.40. This compound gave an SEAP/vibility in data set [4] (215 μM) of 2.61. In data set [4] (setting [15]), the activity at 2.1 µM was 111 ± 24.4%. Besides, in data set [4] (setting [16]), the activity at 21 µM was 120 ± 25.6%. For the same compound, the activity at 215 µM in data set [4] (Homo sapiens, 215 μM, read-out: Relative SEAP activity (%)) came out at 83 ± 19%. Further, in data set [5], the IC50 is 13 µM. In the data set on human hepatoma G2 cells, this compound yielded an IC50 of 0.65 µM. Further, 4.46 µM corresponded to half-maximal inhibition in the data set on rat glioma C6 cells (IC50).
`O=C(Nc1ccc(NC(=O)c2cccs2)c2c1C(=O)c1ccccc1C2=O)c1cccs1` [VI22, 1,4-Bis(2-thiopheneamido)-9,10-anthracenedione] showed a melting point of 321 to 322 °C. In data set [1] (setting [6]), the viability at 48 h, 218 µM was found to be 84 ± 6.9%. Moreover, in data set [1] (setting [7]), the viability at 48 h, 2.1 µM amounted to 118 ± 10.6% and the viability at 48 h, 21 µM was 99 ± 8.2%. Also, the SEAP/vibility in data set [2] (2.1 μM) amounted to 0.93. For the same compound, in data set [2] (21 μM), the SEAP/vibility stood at 0.98. This compound also registered an SEAP/vibility in data set [2] (218 μM) of 1.16. In addition, the activity at 2.1 µM in data set [2] (setting [12]) was 100 ± 3.1%. Moreover, in data set [2] (setting [13]), the activity at 21 µM was 105 ± 5.9%. The activity at 218 µM in data set [2] (setting [14]) was determined as 97 ± 4.9%. Also, in data set [3], the viability at 48 h, 2.1 µM came out at 108 ± 3.7%; the viability at 48 h, 21 µM was 107 ± 8.5%; the viability at 48 h, 218 µM came out at 84 ± 4.3%. Moreover, the SEAP/vibility in data set [4] (2.1 μM) stood at 0.80. Besides, the SEAP/vibility in data set [4] (21 μM) worked out at 0.93. In data set [4] (218 μM), this compound came in with an SEAP/vibility of 1.07. The activity at 2.1 µM in data set [4] (setting [15]) was found to be 94 ± 20.2%. For the same compound, the activity at 21 µM in data set [4] (setting [16]) was 92 ± 17.4%. Also, in data set [4] (setting [17]), the activity at 218 µM was 90 ± 22.7%. Moreover, the IC50 in data set [5] is more than 20 µM. Also, the IC50 in the data set with human hepatoma G2 cells is more than 20 µM. For the same compound, the IC50 in the data set with rat glioma C6 cells is more than 20 µM.

Broadly, the viability is a read-out of living cells in per cent, often relative to untreated cells. As usually defined, the melting point is the temperature, or range, at which the solid turns liquid. As usually defined, the IC50 is the midpoint of a concentration-inhibition curve.
